26 compounds from US10562898B2, “Substituted benzenesulfonamides as inhibitors of alpha-4 beta-7 integrin activity” (EA PHARMA CO., LTD., priority 2016, dated 2020) can be followed below.

Structures are written as SMILES.

For this experiment, the target named is T1, α4β7 integrin (Homo sapiens, UniProt P13612+P26010).
T1 construct: a cell line RPMI-8866, which is known to express α4β7 integrin; endogenous in cells; host or cells: RPMI-8866 (human B cell line)
T1 sequence (P13612 34-1032): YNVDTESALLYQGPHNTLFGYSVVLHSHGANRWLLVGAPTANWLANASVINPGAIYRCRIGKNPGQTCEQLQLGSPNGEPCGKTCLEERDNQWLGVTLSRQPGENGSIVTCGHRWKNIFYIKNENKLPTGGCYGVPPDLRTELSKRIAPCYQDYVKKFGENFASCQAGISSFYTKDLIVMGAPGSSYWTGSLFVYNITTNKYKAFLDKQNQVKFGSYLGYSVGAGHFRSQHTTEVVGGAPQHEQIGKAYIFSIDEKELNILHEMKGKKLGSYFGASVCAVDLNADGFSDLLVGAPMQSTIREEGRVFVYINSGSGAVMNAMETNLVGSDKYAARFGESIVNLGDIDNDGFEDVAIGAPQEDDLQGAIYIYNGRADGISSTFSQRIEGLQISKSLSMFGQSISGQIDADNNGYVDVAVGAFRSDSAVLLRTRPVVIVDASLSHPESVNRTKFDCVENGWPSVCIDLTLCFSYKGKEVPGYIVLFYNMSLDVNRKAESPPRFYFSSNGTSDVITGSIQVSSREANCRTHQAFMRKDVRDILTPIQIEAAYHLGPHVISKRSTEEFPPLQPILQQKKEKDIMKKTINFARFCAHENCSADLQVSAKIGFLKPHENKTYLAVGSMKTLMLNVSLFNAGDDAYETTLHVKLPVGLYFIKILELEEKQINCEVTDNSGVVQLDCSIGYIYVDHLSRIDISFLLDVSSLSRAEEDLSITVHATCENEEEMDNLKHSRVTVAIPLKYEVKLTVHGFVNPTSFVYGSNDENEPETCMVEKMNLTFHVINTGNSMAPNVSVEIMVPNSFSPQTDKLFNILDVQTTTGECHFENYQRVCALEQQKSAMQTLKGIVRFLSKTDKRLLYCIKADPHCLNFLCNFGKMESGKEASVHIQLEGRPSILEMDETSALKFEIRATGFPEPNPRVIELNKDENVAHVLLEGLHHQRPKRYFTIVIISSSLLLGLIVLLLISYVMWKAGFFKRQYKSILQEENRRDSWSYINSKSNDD
T1 sequence (P26010 20-798): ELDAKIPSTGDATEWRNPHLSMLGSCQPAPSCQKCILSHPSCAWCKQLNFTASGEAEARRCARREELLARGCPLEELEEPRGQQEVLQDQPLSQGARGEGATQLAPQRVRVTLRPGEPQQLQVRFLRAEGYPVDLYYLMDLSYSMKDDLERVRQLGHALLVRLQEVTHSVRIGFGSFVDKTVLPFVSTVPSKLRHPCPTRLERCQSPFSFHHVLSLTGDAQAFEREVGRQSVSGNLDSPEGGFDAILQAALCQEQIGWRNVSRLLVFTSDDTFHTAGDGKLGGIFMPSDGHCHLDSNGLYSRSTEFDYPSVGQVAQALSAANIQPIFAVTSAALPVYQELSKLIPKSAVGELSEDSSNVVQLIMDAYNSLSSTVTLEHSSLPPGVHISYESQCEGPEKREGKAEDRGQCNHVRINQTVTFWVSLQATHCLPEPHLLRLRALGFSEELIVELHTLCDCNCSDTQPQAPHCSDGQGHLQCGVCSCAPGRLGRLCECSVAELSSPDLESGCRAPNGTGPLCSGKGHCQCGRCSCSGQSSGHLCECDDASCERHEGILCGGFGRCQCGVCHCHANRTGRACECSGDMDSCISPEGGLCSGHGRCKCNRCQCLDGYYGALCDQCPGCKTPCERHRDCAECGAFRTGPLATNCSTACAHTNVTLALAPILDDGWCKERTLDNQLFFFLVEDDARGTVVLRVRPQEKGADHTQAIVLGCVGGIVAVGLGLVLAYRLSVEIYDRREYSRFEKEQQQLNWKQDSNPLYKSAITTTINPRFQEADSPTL
Briefly: MAdCAM-1/α4β7 integrin binding inhibitory activity evaluation test in presence of serum. Conditions: RPMI-8866 cells, recombinant mouse MAdCAM-1/Fc, 50% human serum; read-out: α4β7 Serum Added IC50. It counts as cell-based. How it is done:
(3) MAdCAM-1/α4β7 Integrin Binding Inhibitory Activity Evaluation Test in Presence of Serum (1)
Each test substance was measured in terms of an ability to inhibit the MAdCAM-1 binding of a human B cell line, namely, a cell line RPMI-8866, which is known to express α4β7 integrin.
A solution of recombinant mouse MAdCAM-1/Fc (R&D Systems, Inc.) (1 μg/mL) diluted with a buffer A (carbonate buffer, pH 9.6) was added in an amount of 50 μL/well to a 96-well microtiter plate, followed by incubation at 4° C. overnight. After the plate was washed with PBS once, 150 μL/well of Block Ace (Snow Brand Milk Products Co., Ltd.) was added, followed by incubation at room temperature for 2 hours. After removal, the plate was washed with PBS once.
Then, 100 μL of the RPMI-8866 cells (2×10^6 cells/mL) and 100 of the test substance at each of various concentrations diluted with a binding buffer (DMEM containing 40 mM HEPES, 0.2% BSA, and 4 mM MnCl2) were added to the plate coated with the MAdCAM-1/Fc (5×10^5 cells/well) such that 50% human serum was contained at the final concentration. Then, incubation was allowed to proceed at 30° C. for 15 to 60 minutes. After the cells were bound to the wells, the plate was washed with PBS to remove unbound cells. A buffer C (PBS containing 1.5% Triton X-100) was added in an amount 50 μL/well to the plate to lyse the bound RPMI-8866 cells. After 30 μL of a substrate buffer (Promega, CytoTox 96 Non-Radioactive Cytotoxicity Assay) was added to 30 μL of the cell lysate, a reaction was allowed to proceed at room temperature in the dark for 30 minutes. After 30 μL of a stop solution (Promega, CytoTox 96 Non-Radioactive Cytotoxicity Assay) was added to each, and then an absorbance at 490 nm was measured using a plate reader. The absorbance obtained here represents a detection result of an activity of lactate dehydrogenase (LDH) eluted in the supernatant of each well, that is, the absorbance is proportional to the number of RPMI-8866 cells bound to the MAdCAM-1 and thus remaining on the plate. The test was performed in duplicate. Provided that the absorbance of the well containing no test substance was 100%, a cell binding rate with the test substance at each of the various concentrations was figured out, and a concentration IC50 which brought about 50% binding inhibition was calculated.
Turning to `Cn1cnc2c1c(=O)n(-c1ccc(C[C@H](NC(=O)c3cc(F)c(NS(=O)(=O)c4ccc(NC(=O)C(C)(C)C)cc4)cc3F)C(=O)O)cc1)c(=O)n2C` [Compound A43], the 50% inhibitory concentration (IC50) (commonly the concentration that inhibits the measured activity by half) was 0.0058 µM. As for `Cn1c(=O)n(-c2ccc(C[C@H](NC(=O)c3cc(F)c(NS(=O)(=O)c4ccc(NC(=O)C5(C(F)(F)F)CC5)cc4)cc3F)C(=O)O)cc2)c(=O)c2ccncc21` [Compound A24], the figure is 0.015 µM. The value for `Cc1cn(C)c(=O)n(-c2ccc(C[C@H](NC(=O)c3cc(F)c(NS(=O)(=O)c4ccc(NC(=O)C(C)(C)C(F)(F)F)cc4)cc3F)C(=O)O)cn2)c1=O` [Compound A58] was 0.012 µM; that for `Cc1cn(C)c(=O)n(-c2ccc(C[C@H](NC(=O)c3cc(F)c(NS(=O)(=O)c4ccc(NC(=O)C(C)(C)CO)cc4)cc3F)C(=O)O)cn2)c1=O` [Compound A63] was 0.012 µM; that for `Cn1ccc(=O)n(-c2ccc(C[C@H](NC(=O)c3cc(F)c(NS(=O)(=O)c4ccc(NC(=O)C(C)(C)C)cc4)cc3F)C(=O)O)cc2)c1=O` [Compound A42] was 0.0098 µM. The value for `Cn1c(C(F)(F)F)cc(=O)n(-c2ccc(C[C@H](NC(=O)c3cc(F)c(NS(=O)(=O)c4ccc(NC(=O)C(C)(C)C)cc4)cc3F)C(=O)O)cn2)c1=O` [Compound A66] was 0.025 µM; that for `CCC(CC)C(=O)Nc1ccc(S(=O)(=O)Nc2cc(F)c(C(=O)N[C@@H](Cc3ccc(-n4c(=O)ccn(C)c4=O)nc3)C(=O)O)cc2F)cc1` [Compound A61] was 0.062 µM; that for `Cc1cn(C)c(=O)n(-c2ccc(C[C@H](NC(=O)c3cc(F)c(NS(=O)(=O)c4ccc(NC(=O)C(C)(C)C)cc4)cc3F)C(=O)O)cn2)c1=O` [Compound A54] was 0.0084 µM. As for `Cc1cn(C)c(=O)n(-c2ccc(C[C@H](NC(=O)c3cc(F)c(NS(=O)(=O)c4ccc(NC(=O)C5(C(F)(F)F)CC5)cc4)cc3F)C(=O)O)cn2)c1=O` [Compound A56], the IC50 came to 0.019 µM. The value for `Cc1cc(=O)n(-c2ccc(C[C@H](NC(=O)c3cc(F)c(NS(=O)(=O)c4ccc(NC(=O)C(C)(C)C)cc4)cc3F)C(=O)O)cn2)c(=O)n1C` [Compound A45] was 0.0084 µM; that for `Cc1cn(C)c(=O)n(-c2ccc(C[C@H](NC(=O)c3cc(F)c(NS(=O)(=O)c4ccc5c(NC(=O)C(C)(C)C)c[nH]c5c4)cc3F)C(=O)O)cn2)c1=O` [Compound A74] was 0.05 µM; that for `Cn1c(=O)n(-c2ccc(C[C@H](NC(=O)c3cc(F)c(NS(=O)(=O)c4ccc(NC(=O)C(C)(C)C)cn4)cc3F)C(=O)O)cn2)c(=O)c2ccncc21` [Compound A31] was 0.005 µM. The value for `Cn1c(=O)n(-c2ccc(C[C@H](NC(=O)c3cc(F)c(NS(=O)(=O)c4ccc(NC(=O)C(C)(C)C)cc4)cc3F)C(=O)O)cn2)c(=O)c2ccncc21` [Compound A26] was 0.0064 µM; that for `Cc1c(C)n(C)c(=O)n(-c2ccc(C[C@H](NC(=O)c3cc(F)c(NS(=O)(=O)c4ccc(NC(=O)C(C)(C)C)nc4)cc3F)C(=O)O)cc2)c1=O` [Compound A25] was 0.048 µM; that for `Cc1cn(C)c(=O)n(-c2ccc(C[C@H](NC(=O)c3cc(F)c(NS(=O)(=O)c4cc5cc(NC(=O)C(C)(C)C)ccc5[nH]4)cc3F)C(=O)O)cn2)c1=O` [Compound A76] was 0.014 µM. Take `Cn1c(=O)n(-c2ccc(C[C@H](NC(=O)c3cc(F)c(NS(=O)(=O)c4ccc(NC(=O)C(C)(C)C)s4)cc3F)C(=O)O)cc2)c(=O)c2ccncc21` [Compound A9]: the half-inhibitory concentration (IC50) worked out at 0.0045 µM. As for `COC1(C(=O)Nc2ccc(S(=O)(=O)Nc3cc(F)c(C(=O)N[C@@H](Cc4ccc(-n5c(=O)c6ccncc6n(C)c5=O)cc4)C(=O)O)cc3F)cc2)CC1` [Compound A16], the figure is 0.044 µM; as for `Cc1c(C)n(C)c(=O)n(-c2ccc(C[C@H](NC(=O)c3cc(F)c(NS(=O)(=O)c4ccc(NC(=O)C5(C(F)(F)F)CC5)cc4)cc3F)C(=O)O)cc2)c1=O` [Compound A20], 0.017 µM. Take `Cn1c2c(c(=O)n(-c3ccc(C[C@H](NC(=O)c4cc(F)c(NS(=O)(=O)c5ccc(NC(=O)C(C)(C)C)cc5)cc4F)C(=O)O)cn3)c1=O)CCCC2` [Compound A52]: the concentration for half-maximal inhibition (IC50) was found to be 0.0049 µM. The value for `Cc1c(CO)c(=O)n(-c2ccc(C[C@H](NC(=O)c3cc(F)c(NS(=O)(=O)c4ccc(NC(=O)C(C)(C)C)cc4)cc3F)C(=O)O)cc2)c(=O)n1C` [Compound A51] was 0.013 µM; that for `Cc1cc(=O)n(-c2ccc(C[C@H](NC(=O)c3cc(F)c(NS(=O)(=O)c4ccc(NC(=O)C(C)(C)C)cc4)cc3F)C(=O)O)nc2)c(=O)n1C` [Compound A72] was 0.028 µM.

Consider `Cc1cn(C)c(=O)n(-c2ccc(C[C@H](NC(=O)c3cc(F)c(NS(=O)(=O)c4ccc(NC(=O)C(C)(C)C)s4)cc3F)C(=O)O)cn2)c1=O` [Compound A73], for which the IC50 was 0.037 µM. For the compound `Cc1cn(C)c(=O)n(-c2ccc(C[C@H](NC(=O)c3cc(F)c(NS(=O)(=O)c4ccc(NC(=O)C5CCCC5)cc4)cc3F)C(=O)O)cn2)c1=O` [Compound A65], the IC50 turned out to be 0.05 µM. The value for `CCC(CC)C(=O)Nc1ccc(S(=O)(=O)Nc2cc(F)c(C(=O)N[C@@H](Cc3ccc(-n4c(=O)c5ccncc5n(C)c4=O)cc3)C(=O)O)cc2F)cc1` [Compound A3] was 0.01 µM; that for `Cn1c(=O)n(-c2ccc(C[C@H](NC(=O)c3cc(F)c(NS(=O)(=O)c4ccc(NC(=O)C(C)(C)C)c(F)c4)cc3F)C(=O)O)cc2)c(=O)c2ccncc21` [Compound A12] was 0.061 µM; that for `Cn1c(=O)n(-c2ccc(C[C@H](NC(=O)c3cc(F)c(NS(=O)(=O)c4ccc(NC(=O)C(C)(C)CO)cc4)cc3F)C(=O)O)cc2)c(=O)c2ccncc21` [Compound A18] was 0.009 µM.
